Publication PMC3578935, “Biochemical Characterization of CTX-M-15 from Enterobacter cloacae and Designing a Novel Non-β-Lactam-β-Lactamase Inhibitor” (PLoS ONE, 2013)
≈ marks a conversion by molar mass, not a printed value. Entries after “also recorded” stand apart in the source; their conditions may differ. Read-outs that look alike come from different tables or passages of the source.

What was measured:
[1] = test system: E. coli DH5α (Null Plasmid); assay: MIC by micro-dilution, null plasmid control strain; format: cell-based; conditions: Escherichia coli, read-out: MIC DH5α(Null Plasmid)
[2] = test system: E. coli DH5α transformed with recombinant bla CTX-M-15 (pQE-2-CTX-M-15); assay: MIC by micro-dilution, β-lactams alone or with inhibitors; format: cell-based; conditions: for MIC DH5α(pQE-2-CTX-M-15): E. coli DH5α with bla CTX-M-15 cloned from E. cloacae EC-15; for MIC DH5α(pQE-2-CTX-M-15) / MIC: in combinations clavulanic acid, sulbactam, tazobactam at 4 µg/ml; for MIC: Escherichia coli, read-out: MIC DH5α(pQE-2-CTX-M-15), E. coli DH5α with bla CTX-M-15 cloned from E. cloacae EC-15; for fold lowering of MIC of cefotaxime in combination with inhibitor: DH5α transformed with bla CTX-M-15
Description: E. coli DH5α and E. coli BL21 (DE3) were used for cloning and protein expression experiments, respectively. MICs were determined on E. coli DH5α transformed with cloned CTX-M-15 from Enterobacter cloacae clinical strain EC-15.
The MICs for various antibiotics alone or in combination with various inhibitors (clavulanic acid, sulbactam, tazobactam and ZINC03787097) were determined by micro-dilution method and the results were interpreted according to Clinical Laboratory Standards Institute (CLSI) guidelines. Briefly, E. coli DH5α cells transformed with CTX-M-15 was treated with increasing concentrations of the antibiotics ranging from 0.5 to 2000 µg/ml in a series of two fold dilutions. The inhibitors clavulanic acid, sulbactam and tazobactam were used at a fixed concentration of 4 µg/ml, while ZINC03787097 was used at 20 µg/ml.

CTX-M-15 [3] = molecular target: T1, CTX-M-15 (Escherichia coli, UniProt Q9EXV5); conditions: for K m or K i: K m for good substrates, for poor substrates (ceftazidime, cefepime, aztreonam) determined as K i against 100 µM nitrocefin; for k cat: 50 mM phosphate buffer pH 7.0, 30°C
Description: The inhibitors used were Clavulanic acid, Sulabctam, Tazobactam and ZINC03787097.
Hydrolysis of β-lactam antibiotics was detected by monitoring the variation in the absorbance due to cleavage of β-lactam ring in 50 mM phosphate buffer, pH 7.0 [28]. All the measurements were taken in triplicate on Shimadzu UV-VIS spectrophotometer (UV-1800). The reaction was performed in a total volume of 500 µl at 30°C. For dilution of the enzyme and to prevent denaturation, BSA was added to a final concentration of 20 µg/ml.

CTX-M-15 [4] = molecular target: T1, CTX-M-15; format: biochemical, Enterobacter cloacae; design: His tag (inferred from the pQE-2 vector and Ni-NTA purification); made in house; host or cells: E. coli BL21 (DE3)
CTX-M-15 [5] = molecular target: T1, CTX-M-15; assay: Stability of ZINC03787097 in the presence of CTX-M-15 (UV absorbance); format: biochemical, Enterobacter cloacae; design: His tag (inferred from the pQE-2 vector and Ni-NTA purification); made in house; host or cells: E. coli BL21 (DE3); conditions: 100 µM inhibitor, 10 nM CTX-M-15, 3600 seconds, absorbance at 283 nm and 222 nm
Description: The UV absorption spectrum (320-210 nm) of ZINC03787097 (100 µM) alone or after 3600 seconds incubation with CTX-M-15 (10 nM) was measured in 50 mM phosphate buffer, pH 7.0 at 30°C on Shimadzu UV-VIS spectrophotometer (UV-1800). The stability of ZINC03787097 in the presence of CTX-M-15 was monitored by measuring the absorbance for 3600 seconds at 283 nm and 222 nm.

CTX-M-15 [6] = molecular target: T1, CTX-M-15; assay: Enzyme inhibition kinetics (acylation/deacylation, competition with nitrocefin); conditions: for K′: dissociation constant of the Henri-Michaelis complex; for k +2 x 10^−2: first-order acylation constant, values x 10^−2
Description: (§1) The parameters k +2, k +3 and K′ are the first-order acylation and deacylation constants, and the dissociation constant of the Henri-Michaelis complex, respectively.
(§2) where, v o, v t and v ss are the rates of utilization of the reporter substrate at times 0 and t, and after the steady-state has been established, respectively.
(§3) The individual parameters, k +2, k +3 and K′, were derived from the dependence of k i upon inhibitor concentration, [C], on the basis of the following equation: [drawing 10]
(§4) When the concentration of inhibitor [C] is well below K′, k i varies linearly the above equations is simplified as: [drawing 11]
(§5) The k +2/K′ value is then obtained from the slope of the line, whereas k +3 is given by the intercept at [C] = 0. Conversely, if [C] is much larger than K′ (K m+[S])/K m, then k i = k +2+k +3, and is independent of [C]

CTX-M-15 [7] = molecular target: T1, CTX-M-15; assay: IC50 determination, nitrocefin hydrolysis after 5 min pre-incubation; format: biochemical, Enterobacter cloacae; design: His tag (inferred from the pQE-2 vector and Ni-NTA purification); made in house; host or cells: E. coli BL21 (DE3); conditions: IC50, 5 min pre-incubation at 30°C; 100 µM nitrocefin
Description: The 50% inhibitory concentration (IC50) was determined as the concentration of the inhibitor that inhibited hydrolytic activity of the enzyme by 50%.

[8] = test system: C[C@]1(Cn2ccnn2)[C@H](C(=O)O)N2C(=O)C[C@H]2S1(=O)=O; assay: purified protein, by the assay type; conditions: other: slope of k i versus inhibitor concentration
Description: as §1, §2, §3, §4, §5

[9] = test system: CO/N=C(\C(=O)N[C@@H]1C(=O)N2C(C(=O)O)=C(COC(N)=O)CS[C@H]12)c1ccco1; assay: purified protein, by the assay type; conditions: other: 50 mM phosphate buffer pH 7.0, 30°C
[10] = test system: O=C(Cc1cccs1)N[C@@H]1C(=O)N2C(C(=O)O)=C(/C=C/c3ccc([N+](=O)[O-])cc3[N+](=O)[O-])CS[C@H]12; assay: purified protein, by the assay type; conditions: other: 50 mM phosphate buffer pH 7.0, 30°C
[11] = test system: CO/N=C(\C(=O)N[C@@H]1C(=O)N2C(C(=O)O)=C(CSc3nc(=O)c(=O)[nH]n3C)CS[C@H]12)c1csc(N)n1; assay: purified protein, by the assay type; conditions: other: 50 mM phosphate buffer pH 7.0, 30°C
[12] = test system: CCN1CCN(C(=O)N[C@@H](C(=O)N[C@@H]2C(=O)N3[C@@H]2SC(C)(C)[C@@H]3C(=O)O)c2ccccc2)C(=O)C1=O; assay: purified protein, by the assay type; conditions: other: 50 mM phosphate buffer pH 7.0, 30°C
[13] = test system: CO/N=C(\C(=O)N[C@@H]1C(=O)N2C(C(=O)O)=C(COC(C)=O)CS[C@H]12)c1csc(N)n1; assay: purified protein, by the assay type; conditions: other: 50 mM phosphate buffer pH 7.0, 30°C
[14] = test system: CC1(C)S[C@@H]2[C@H](NC(=O)[C@H](N)c3ccccc3)C(=O)N2[C@H]1C(=O)O; assay: purified protein, by the assay type; conditions: other: 50 mM phosphate buffer pH 7.0, 30°C
[15] = test system: CC(C)(O/N=C(\C(=O)N[C@@H]1C(=O)N2C(C(=O)[O-])=C(C[n+]3ccccc3)CS[C@H]12)c1csc(N)n1)C(=O)O; assay: purified protein, by the assay type; conditions: other: 50 mM phosphate buffer pH 7.0, 30°C
[16] = in combinations clavulanic acid, sulbactam, tazobactam at 4 µg/ml, ZINC03787097 at 20 µg/ml
[17] = K i, determined at steady-state, competition with 100 µM nitrocefin
[18] = K i calculated as K i = k +3 K/k +2, calculated value

## CO/N=C(\C(=O)N[C@@H]1C(=O)N2C(C(=O)[O-])=C(C[N+]3(C)CCCC3)CS[C@H]12)c1csc(N)n1 [Cefepime]
[1]
  MIC: 0.25 µg/mL (≈ 0.52 µM)
[2]; ZINC03787097 at 20 µg/ml, listed as Cefepime (IV)
  MIC DH5α(pQE-2-CTX-M-15): 128 µg/ml
[2]; ZINC03787097 at 20 µg/ml
  MIC: 125 µg/mL

## CO/N=C(\C(=O)N[C@@H]1C(=O)N2C(C(=O)O)=C(COC(N)=O)CS[C@H]12)c1ccco1 [Cefuroxime]
CTX-M-15 [3]
  K m or K i: 29 ± 2 µM
[1]; [16]
  MIC: 1 µg/mL

## Cc1nnc(SCC2=C(C(=O)O)N3C(=O)[C@@H](NC(=O)Cn4cnnn4)[C@H]3SC2)s1 [Cefazolin]
[1]
  MIC: 2 µg/mL (≈ 4.4 µM)

## O=C(Cc1cccs1)N[C@@H]1C(=O)N2C(C(=O)O)=C(/C=C/c3ccc([N+](=O)[O-])cc3[N+](=O)[O-])CS[C@H]12 [Nitrocefin]
CTX-M-15 [3]
  k cat: 582 s⁻¹
  K m or K i: 35 ± 4 µM
CTX-M-15 [4]; 0.00 µM ZINC03787097, 0.50 nM CTX-M-15
  K m for nitrocefin hydrolysis: 42 µM

## CC#CCC(C)C(O)C=CC1C(O)CC2Oc3c(CCCC(=O)O)cccc3C21 (stereo not drawn) [ZINC03787097]
CTX-M-15 [5]
  hydrolysis of inhibitor by CTX-M-15: no detectable hydrolysis; also recorded: negligible hydrolysis
CTX-M-15 [6]; [17]
  Ki: 0.388 µM
CTX-M-15 [4]; 0.25 µM ZINC03787097, 0.50 nM CTX-M-15
  K m for nitrocefin hydrolysis in the presence of inhibitor: 67 µM
CTX-M-15 [4]; 0.50 µM ZINC03787097, 0.50 nM CTX-M-15
  K m for nitrocefin hydrolysis in the presence of inhibitor: 94 µM
CTX-M-15 [4]; 0.75 µM ZINC03787097, 0.50 nM CTX-M-15
  K m for nitrocefin hydrolysis in the presence of inhibitor: 96 µM
CTX-M-15 [4]; Lineweaver-Burg plot
  mode of inhibition: reversible inhibitor; also recorded: competitive inhibition
CTX-M-15 [4]; similar at 0.00-0.75 µM ZINC03787097
  Vmax of nitrocefin hydrolysis: 3.22e-07 M/s
CTX-M-15 [7]
  IC50: 0.18 µM
[2]
  fold lowering of MIC of cefotaxime in combination with inhibitor: 2 fold
[2]; ZINC03787097 at 20 µg/ml
  effect on MICs of antibiotics of cephalosporin group: reduced in the presence of ZINC03787097 to a level observed in the case of antibiotic-sulbactam combination

## CO[C@@]1(NC(=O)Cc2cccs2)C(=O)N2C(C(=O)O)=C(COC(N)=O)CS[C@@H]21 [Cefoxitin]
[1]; [16]
  MIC: 2 µg/mL
[2]; ZINC03787097 at 20 µg/ml
  MIC: 16 µg/mL

## CTX-M-15 (Escherichia coli)
[8]
  kcat/Km: 440000 M⁻¹ s⁻¹
[9]
  kcat: 87 ± 2 s⁻¹
  kcat/Km: 3e+06 M⁻¹ s⁻¹
[10]
  kcat: 582 s⁻¹
  kcat/Km: 1.66e+07 M⁻¹ s⁻¹
[11]
  kcat: 82 ± 5 s⁻¹
  kcat/Km: 2.5e+06 M⁻¹ s⁻¹
[12]
  kcat: 58 ± 4 s⁻¹
  kcat/Km: 1.8e+06 M⁻¹ s⁻¹
[13]
  kcat: 222 ± 7 s⁻¹
  kcat/Km: 3.7e+06 M⁻¹ s⁻¹
[14]
  kcat: 57 ± 3 s⁻¹
  kcat/Km: 3.8e+06 M⁻¹ s⁻¹
[15]
  kcat: 1.51 ± 0.03 s⁻¹
  kcat/Km: 1200 M⁻¹ s⁻¹

## C[C@]1(Cn2ccnn2)[C@H](C(=O)O)N2C(=O)C[C@H]2S1(=O)=O [Tazobactam]
CTX-M-15 [6]; [18]
  Ki: 0.013 µM
CTX-M-15 [6]; [17]
  Ki: 0.017 µM
CTX-M-15 [6]
  K′: 0.03 µM
  k +2 x 10^−2: 1.3 s^−1
CTX-M-15 [7]
  IC50: 0.001 µM
[2]
  fold lowering of MIC of cefotaxime in combination with inhibitor: 8 fold
[2]; inhibitor in combination with β-lactam antibiotics
  fold reduction of MICs of β-lactam antibiotics: 2–16 folds

## O=C(O)[C@H]1/C(=C/CO)O[C@@H]2CC(=O)N21 [Clavulanic acid]
CTX-M-15 [6]; [18]
  Ki: 0.106 µM
CTX-M-15 [6]; [17]
  Ki: 0.099 µM
CTX-M-15 [6]
  K′: 0.72 µM
  k +2 x 10^−2: 1.3 s^−1
CTX-M-15 [7]
  IC50: 0.014 µM
[2]
  fold lowering of MIC of cefotaxime in combination with inhibitor: 16 fold

## CCN1CCN(C(=O)N[C@@H](C(=O)N[C@@H]2C(=O)N3[C@@H]2SC(C)(C)[C@@H]3C(=O)O)c2ccccc2)C(=O)C1=O [Piperacillin]
CTX-M-15 [3]
  K m or K i: 32 ± 5 µM
[1]; [16]
  MIC: 1 µg/mL

## CO/N=C(\C(=O)N[C@@H]1C(=O)N2C(C(=O)O)=C(COC(C)=O)CS[C@H]12)c1csc(N)n1 [Cefotaxime]
CTX-M-15 [3]
  K m or K i: 60 ± 3 µM
[1]; [16]
  MIC: 0.25 µg/mL
[2]; ZINC03787097 at 20 µg/ml, listed as Cefotaxime (III)
  MIC DH5α(pQE-2-CTX-M-15): 512 µg/ml
[2]; ZINC03787097 at 20 µg/ml
  MIC: 500 to 1000 µg/mL

## C[C@H]1[C@H](NC(=O)/C(=N\OC(C)(C)C(=O)O)c2csc(N)n2)C(=O)N1S(=O)(=O)O [Aztreonam]
[1]
  MIC: 0.25 µg/mL (≈ 0.574 µM)
[2]; ZINC03787097 at 20 µg/ml
  MIC: 16 µg/mL

## CC1(C)S[C@@H]2[C@H](NC(=O)[C@H](N)c3ccccc3)C(=O)N2[C@H]1C(=O)O [Ampicillin]
CTX-M-15 [3]
  K m or K i: 15 ± 2 µM
[1]; [16]
  MIC: 2 µg/mL

## CO/N=C(\C(=O)N[C@@H]1C(=O)N2C(C(=O)O)=C(CSc3nc(=O)c(=O)[nH]n3C)CS[C@H]12)c1csc(N)n1 [Ceftriaxone]
CTX-M-15 [3]
  K m or K i: 33 ± 2 µM
[1]; [16]
  MIC: 0.06 µg/mL

## CC(C)(O/N=C(\C(=O)N[C@@H]1C(=O)N2C(C(=O)[O-])=C(C[n+]3ccccc3)CS[C@H]12)c1csc(N)n1)C(=O)O [Ceftazidime]
CTX-M-15 [3]
  k cat: 1.51 s⁻¹
  K m or K i: 1209 µM
CTX-M-15 [3]; listed as Ceftazidime (III)
  K m or K i: 1209 ± 91 µM
[1]; [16]
  MIC: 0.25 µg/mL
[2]; ZINC03787097 at 20 µg/ml
  MIC: 4 µg/mL

## CC1(C)[C@H](C(=O)O)N2C(=O)C[C@H]2S1(=O)=O [Sulbactam]
CTX-M-15 [6]; [18]
  Ki: 0.131 µM
CTX-M-15 [6]; [17]
  Ki: 0.062 µM
CTX-M-15 [6]
  K′: 0.55 µM
  k +2 x 10^−2: 1.6 s^−1
CTX-M-15 [7]
  IC50: 0.212 µM
[2]
  fold lowering of MIC of cefotaxime in combination with inhibitor: 2 fold
